Tests used:
[1] = biological target: Platelet-activating factor receptor (Homo sapiens, UniProt P25105)
[2] = biological target: Beta-arrestin-1 (Oryctolagus cuniculus, UniProt Q95223)
Sequence of Beta-arrestin-1 (Q95223 whole entry): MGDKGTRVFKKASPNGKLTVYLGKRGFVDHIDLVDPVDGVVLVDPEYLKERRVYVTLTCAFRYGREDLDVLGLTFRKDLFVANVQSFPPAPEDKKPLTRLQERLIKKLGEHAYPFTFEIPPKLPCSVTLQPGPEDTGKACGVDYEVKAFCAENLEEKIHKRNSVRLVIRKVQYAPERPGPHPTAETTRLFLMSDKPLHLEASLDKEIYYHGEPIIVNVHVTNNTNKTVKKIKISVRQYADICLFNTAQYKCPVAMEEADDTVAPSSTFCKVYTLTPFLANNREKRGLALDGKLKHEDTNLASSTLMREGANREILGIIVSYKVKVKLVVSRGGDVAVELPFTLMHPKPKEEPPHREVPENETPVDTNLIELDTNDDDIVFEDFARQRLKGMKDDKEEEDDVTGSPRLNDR

Sequence of Platelet-activating factor receptor (P25105 whole entry): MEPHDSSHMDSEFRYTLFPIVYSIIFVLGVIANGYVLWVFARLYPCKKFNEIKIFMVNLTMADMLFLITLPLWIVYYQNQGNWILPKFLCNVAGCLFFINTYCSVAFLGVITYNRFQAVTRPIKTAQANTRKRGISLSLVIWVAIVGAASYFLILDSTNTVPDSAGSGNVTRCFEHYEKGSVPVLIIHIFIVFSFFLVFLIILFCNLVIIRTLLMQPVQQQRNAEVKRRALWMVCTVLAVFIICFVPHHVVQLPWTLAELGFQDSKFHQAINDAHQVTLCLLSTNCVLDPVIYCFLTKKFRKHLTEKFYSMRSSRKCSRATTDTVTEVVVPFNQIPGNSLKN

**Q.** `CCCOc1c(OC)cc([C@H]2CC[C@H](c3cc(OC)c(OC)c(OC)c3)O2)cc1S(C)(=O)=O` [L-659,989, (-)] was tested. Which Ki [1] did it give?
**A.** 5.48 nM

**Q.** And the Ki [2]?
**A.** 0.51 nM
